Source: patent publication US9334264B2, “NAMPT inhibitors” (AbbVie Inc., priority 2012, dated 2016)

Key:
[1] = target: NAMPT (human, recombinant, C-terminally His-tagged) (Homo sapiens, UniProt P43490); assay: Time-Resolved Fluorescence Resonance Energy Transfer (TR-FRET) Binding Assay of NAMPT; details: absence of substrates; 6.8 nM NAMPT, 200 nM probe, equilibrated 3 hours
In short: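 Displacement of 200 nM Oregon Green-labelled nicotinamide-competitive probe from 6.8 nM His-tagged NAMPT, detected with 1 nM Tb-anti-His; HEPES pH 7.5, 2% DMSO, 3 h room temperature. Em520/Em495 ratios normalized and fit four-parameter logistic for IC50.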

NAMPT = NAMPT (Homo sapiens, UniProt P43490); assay: Time-Resolved Fluorescence Resonance Energy Transfer (TR-FRET) Binding Assay of NAMPT with PRPP; details: 200 μM PRPP and 2.5 mM ATP; 2 nM NAMPT, 2 nM probe, equilibrated 16 hours
In short: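 Binding was measured by TR-FRET with 2 nM NAMPT, 2 nM probe and 1 nM Tb-anti-His antibody in the presence of 200 μM PRPP and 2.5 mM ATP, with 2% DMSO. Equilibration lasted 16 h before reading, allowing possible enzymatic modification of compounds.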

NAMPT (human, recombinant, C-terminally His-tagged), sequence (P43490 whole entry): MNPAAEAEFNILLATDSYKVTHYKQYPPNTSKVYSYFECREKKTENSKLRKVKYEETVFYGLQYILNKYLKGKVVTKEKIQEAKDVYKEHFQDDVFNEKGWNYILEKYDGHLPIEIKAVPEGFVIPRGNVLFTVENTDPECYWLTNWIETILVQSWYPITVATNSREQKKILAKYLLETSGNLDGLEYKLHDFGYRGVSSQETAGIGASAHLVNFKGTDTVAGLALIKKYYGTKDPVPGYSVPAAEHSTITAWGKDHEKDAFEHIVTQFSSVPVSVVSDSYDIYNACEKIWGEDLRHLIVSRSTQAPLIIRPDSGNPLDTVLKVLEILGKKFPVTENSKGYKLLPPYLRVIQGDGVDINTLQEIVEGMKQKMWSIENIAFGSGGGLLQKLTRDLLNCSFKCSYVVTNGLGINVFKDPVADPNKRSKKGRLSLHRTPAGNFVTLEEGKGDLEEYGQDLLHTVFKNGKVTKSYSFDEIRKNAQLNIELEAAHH
NAMPT, sequence (P43490 whole entry): as above

| SMILES | IC50 [1] | IC50 (NAMPT) |
| --- | --- | --- |
| COC(C)CNC(=O)N(Cc1ccc(C#N)cc1)c1ncc(C(=O)NCCCn2ccnc2)s1 (stereo not shown) [Example 124, 2-{(4-cyanobenzyl)[(2-methoxypropyl)carbamoyl]amino}-N-[3-(1H-imidazol-1-yl)propyl]-1,3-thiazole-5-carboxamide] | 3520 nM | 0.624 nM |
| O=C(NCCCn1ccnc1)c1cnc(N(Cc2ccc(F)cc2)Cc2ccc(Cl)cc2)s1 [Example 15, 2-[(4-chlorobenzyl)(4-fluorobenzyl)amino]-N-[3-(1H-imidazol-1-yl)propyl]-1,3-thiazole-5-carboxamide] | 3820 nM | 92.1 nM |
| COCCC(=O)N(CCc1ccccn1)c1ncc(C(=O)NCCCn2ccnc2)s1 [Example 101, N-[3-(1H-imidazol-1-yl)propyl]-2-{(3-methoxypropanoyl)[2-(pyridin-2-yl)ethyl]amino}-1,3-thiazole-5-carboxamide acetate (1:1)] | 5620 nM | 2.84 nM |
| COCCC(=O)N(Cc1cnn(C)c1)c1ncc(C(=O)NCCCn2ccnc2)s1 [Example 111, N-[3-(1H-imidazol-1-yl)propyl]-2-{(3-methoxypropanoyl)[(1-methyl-1H-pyrazol-4-yl)methyl]amino}-1,3-thiazole-5-carboxamide] | > 10000 nM | 5.87 nM |
| CC(C)NC(=O)N(Cc1ccc(F)cc1)c1ncc(C(=O)NCCCn2ccnc2)s1 [Example 46, 2-[(4-fluorobenzyl)(propan-2-ylcarbamoyl)amino]-N-[3-(1H-imidazol-1-yl)propyl]-1,3-thiazole-5-carboxamide] | 9520 nM | 2.2 nM |
| O=C(NCCCn1ccnc1)c1cnc(N(Cc2ccc(F)cc2)C(=O)CN2CCC(O)CC2)s1 [Example 29, 2-{(4-fluorobenzyl)[(4-hydroxypiperidin-1-yl)acetyl]amino}-N-[3-(1H-imidazol-1-yl)propyl]-1,3-thiazole-5-carboxamide] | > 10000 nM | 2.16 nM |
| COCCC(=O)N(CCCN1CCCC1=O)c1ncc(C(=O)NCCCn2ccnc2)s1 [Example 197, N-[3-(1H-imidazol-1-yl)propyl]-2-{(3-methoxypropanoyl)[3-(2-oxopyrrolidin-1-yl)propyl]amino}-1,3-thiazole-5-carboxamide] | 9210 nM | 0.251 nM |
| CC(CO)NC(=O)N(Cc1ccc(C#N)cc1)c1ncc(C(=O)NCCCn2ccnc2)s1 (stereo not shown) [Example 129, 2-{(4-cyanobenzyl)[(1-hydroxypropan-2-yl)carbamoyl]amino}-N-[3-(1H-imidazol-1-yl)propyl]-1,3-thiazole-5-carboxamide] | > 10000 nM | 1.16 nM |
| O=C(NCCCn1ccnc1)c1cnc(N2C[C@H](CN3C(=O)c4ccccc4C3=O)OC2=O)s1 [Example 212, 2-{(5S)-5-[(1,3-dioxo-1,3-dihydro-2H-isoindol-2-yl)methyl]-2-oxo-1,3-oxazolidin-3-yl}-N-[3-(1H-imidazol-1-yl)propyl]-1,3-thiazole-5-carboxamide] | 5710 nM | 1.03 nM |
| O=C(NCCCn1ccnc1)c1cnc(N(Cc2ccc(F)cc2)C(=O)CN2CC=CCC2)s1 [Example 27, 2-[(3,6-dihydropyridin-1(2H)-ylacetyl)(4-fluorobenzyl)amino]-N-[3-(1H-imidazol-1-yl)propyl]-1,3-thiazole-5-carboxamide] | > 10000 nM | 0.632 nM |
| COC1CCN(C(=O)N(Cc2ccc(F)cc2)c2ncc(C(=O)NCCCn3ccnc3)s2)C1 (stereo not shown) [Example 68, 2-{(4-fluorobenzyl)[(3-methoxypyrrolidin-1-yl)carbonyl]amino}-N-[3-(1H-imidazol-1-yl)propyl]-1,3-thiazole-5-carboxamide] | > 10000 nM | 4.68 nM |
| CC(C)CCN(Cc1ccccc1F)c1ncc(C(=O)NCCCn2ccnc2)s1 [Example 55, 2-[(2-fluorobenzyl)(3-methylbutyl)amino]-N-[3-(1H-imidazol-1-yl)propyl]-1,3-thiazole-5-carboxamide] | > 10000 nM | 3180 nM |
| COCCC(=O)N(Cc1ccc(C)nc1)c1ncc(C(=O)NCCCn2ccnc2)s1 [Example 113, N-[3-(1H-imidazol-1-yl)propyl]-2-{(3-methoxypropanoyl)[(6-methylpyridin-3-yl)methyl]amino}-1,3-thiazole-5-carboxamide] | 4990 nM | 6.76 nM |
| COCCC(=O)N(Cc1cccnc1)c1ncc(C(=O)NCCCn2ccnc2)s1 [Example 122, N-[3-(1H-imidazol-1-yl)propyl]-2-[(3-methoxypropanoyl)(pyridin-3-ylmethyl)amino]-1,3-thiazole-5-carboxamide] | > 10000 nM | 4.31 nM |
| CNC(=O)CCN(C(=O)CCOC)c1ncc(C(=O)NCCCn2ccnc2)s1 [Example 200, N-[3-(1H-imidazol-1-yl)propyl]-2-{(3-methoxypropanoyl)[3-(methylamino)-3-oxopropyl]amino}-1,3-thiazole-5-carboxamide] | > 10000 nM | 0.747 nM |
| CCN1CC(CN(C(=O)CCOC)c2ncc(C(=O)NCCCn3ccnc3)s2)CC1=O (stereo not shown) [Example 193, 2-{[(1-ethyl-5-oxopyrrolidin-3-yl)methyl](3-methoxypropanoyl)amino}-N-[3-(1H-imidazol-1-yl)propyl]-1,3-thiazole-5-carboxamide] | 6060 nM | 0.755 nM |

Stronger by IC50 [1], values ahead:

| IC50 [1] | IC50 (NAMPT) | SMILES |
| --- | --- | --- |
| 3330 nM | 187 nM | CCOC(=O)CC(NC(=O)N(Cc1ccc(C#N)cc1)c1ncc(C(=O)NCCCn2ccnc2)s1)C(C)C (stereo not shown) [Example 162, ethyl 3-{[(4-cyanobenzyl)(5-{[3-(1H-imidazol-1-yl)propyl]carbamoyl}-1,3-thiazol-2-yl)carbamoyl]amino}-4-methylpentanoate] |
| 2870 nM | 1.22 nM | COCCC(=O)N(Cc1ccnc(OC)c1)c1ncc(C(=O)NCCCn2ccnc2)s1 [Example 94, N-[3-(1H-imidazol-1-yl)propyl]-2-{(3-methoxypropanoyl)[(2-methoxypyridin-4-yl)methyl]amino}-1,3-thiazole-5-carboxamide] |
| 2610 nM | 0.606 nM | CCN(CC)CCCN(C(=O)CCOC)c1ncc(C(=O)NCCCn2ccnc2)s1 [Example 190, 2-{[3-(diethylamino)propyl](3-methoxypropanoyl)amino}-N-[3-(1H-imidazol-1-yl)propyl]-1,3-thiazole-5-carboxamide] |
| 2390 nM | 0.938 nM | CN(C)C1CCN(CC(=O)N(Cc2ccc(F)cc2)c2ncc(C(=O)NCCCn3ccnc3)s2)C1 (stereo not shown) [Example 39, 2-[{[3-(dimethylamino)pyrrolidin-1-yl]acetyl}(4-fluorobenzyl)amino]-N-[3-(1H-imidazol-1-yl)propyl]-1,3-thiazole-5-carboxamide] |
| 2260 nM | 1.26 nM | CC(C)OCCNC(=O)N(Cc1ccc(F)cc1)c1ncc(C(=O)NCCCn2ccnc2)s1 [Example 87, 2-[(4-fluorobenzyl){[2-(propan-2-yloxy)ethyl]carbamoyl}amino]-N-[3-(1H-imidazol-1-yl)propyl]-1,3-thiazole-5-carboxamide] |
| 2110 nM | 5.6 nM | Cc1cn(CCCNC(=O)c2cnc(N(Cc3ccc(F)cc3)C(=O)CC(C)C)s2)cn1 [Example 54, 2-[(4-fluorobenzyl)(3-methylbutanoyl)amino]-N-[3-(4-methyl-1H-imidazol-1-yl)propyl]-1,3-thiazole-5-carboxamide] |
| 1900 nM | 1.78 nM | N#Cc1ccc(CN(C(=O)CC2CCOC2)c2ncc(C(=O)NCCCn3ccnc3)s2)cc1 (stereo not shown) [Example 61, 2-[(4-cyanobenzyl)(tetrahydrofuran-3-ylacetyl)amino]-N-[3-(1H-imidazol-1-yl)propyl]-1,3-thiazole-5-carboxamide] |
| 1850 nM | 2.97 nM | CC(C)CNC(=O)N(Cc1ccc(F)cc1)c1ncc(C(=O)NCCCn2ccnc2)s1 [Example 64, 2-{(4-fluorobenzyl)[(2-methylpropyl)carbamoyl]amino}-N-[3-(1H-imidazol-1-yl)propyl]-1,3-thiazole-5-carboxamide] |
| 996 nM | 505 nM | CCN(CC)C(=O)CN(Cc1ccc(F)cc1)c1ncc(C(=O)NCCCn2ccnc2)s1 [Example 21, 2-{[2-(diethylamino)-2-oxoethyl](4-fluorobenzyl)amino}-N-[3-(1H-imidazol-1-yl)propyl]-1,3-thiazole-5-carboxamide] |
| 720 nM | 0.461 nM | O=C(NCCCn1ccnc1)c1cnc(N(Cc2ccc(F)cc2)C(=O)CC2CCCCC2)s1 [Example 5, 2-[(cyclohexylacetyl)(4-fluorobenzyl)amino]-N-[3-(1H-imidazol-1-yl)propyl]-1,3-thiazole-5-carboxamide] |
| 281 nM | 19.6 nM | CC(C)N1CCN(CCN(Cc2ccc(F)cc2)c2ncc(C(=O)NCCCn3ccnc3)s2)CC1 [Example 10, 2-[(4-fluorobenzyl){2-[4-(propan-2-yl)piperazin-1-yl]ethyl}amino]-N-[3-(1H-imidazol-1-yl)propyl]-1,3-thiazole-5-carboxamide] |
| 252 nM | 0.21 nM | COCCC(=O)N(CCC(C)C)c1ncc(C(=O)NCCCn2ccnc2)s1 [Example 150, N-[3-(1H-imidazol-1-yl)propyl]-2-[(3-methoxypropanoyl)(3-methylbutyl)amino]-1,3-thiazole-5-carboxamide] |
| 219 nM | 0.412 nM | COCC(=O)N(CCC(C)C)c1ncc(C(=O)NCCCn2ccnc2)s1 [Example 151, N-[3-(1H-imidazol-1-yl)propyl]-2-[(methoxyacetyl)(3-methylbutyl)amino]-1,3-thiazole-5-carboxamide] |
